For orientation: Kd means a measure of binding affinity in units of concentration.

This test concerns the target T1, Hsp90αN (N-terminal domain of human Hsp90α) (Homo sapiens, UniProt P07900).
T1 construct: gene HSP90AA1; N-terminal domain, amino acids 3–241, N-terminal His6 tag
Put plainly: ITC; weak ligand displaced by radicicol (association constant Kb given). Format: binding. Background: In ITC the heat of successive injections is recorded.

In the case of `COCCOC(=O)c1ccc(O)cc1O` [compound 1], binding was characterised by a dissociation constant (Kd) of 50 µM.

For the origin of these results see article PMC2705510, “Measurement of Nanomolar Dissociation Constants by Titration Calorimetry and Thermal Shift Assay – Radicicol Binding to Hsp90 and Ethoxzolamide Binding to CAII” (2009).
